Test results from patent US11027028B2, “Manganese complexes with substituted bisphosphonates useful as imaging and therapeutic agents” (DUKE UNIVERSITY, priority 2015, dated 2021).
Each block holds one molecule with its values, some of them ahead of it.

Columns and labels:
[1] = In vivo MRI after i.v. administration of Mn(II) complexes; set-up: species or system mouse
Method: FIG. 4. A, In vivo MRI in control mouse after i.v. administration of MnNTA. B, MRI after i.v. administration of Mn:ETID ([…] of 40 mM solution).
In vivo behavior was tested of two relatively strong (log K1>7) ligands for Mn(II) chelation, nitrilotriacetic acid (NTA), closely related to EDTA, and […] (3,4-DBA).
Enhancement of the bowel is also noted but more variable, believed to represent elimination of the coordination complex from the gallbladder into the small intestine. In addition, subtle but transient T1 changes are observed in the skeletal muscles and long bones that return to normal after 30 min, paralleling the mild residual T1 changes in major vessels, consistent with a blood pool rather than local parenchymal uptake effect.

[2] = system: 4T1 tumor; assay: Dynamic contrast enhancement of 4T1 tumor after i.v. administration; format: in vivo; details: pilot data
Method: FIG. 5. Dynamic contrast enhancement of 4T1 tumor after i.v. administration of 1-hydroxybisphosphonate:Mn complex linked to HSP90 inhibitor as in Scheme 1C, 25 mg/kg. Graph on left depicts relative change in T1 enhancement in tumors after labeled drug (n=5) and after Mn:ETID complex alone (n=6).
Several synthetic strategies were used for labeling small molecule drugs either directly or via polyethyleneglycol (PEG) linkers. Two complexes, the first with a medronate analogue (Scheme IB) via the amine-terminated PEG linker and the second an etidronate analogue coupled through the COOH-terminated PEG linker (Scheme 1C), were synthesized, characterized and studied preliminarily in vivo.

[3] = previously FDA-approved Mn(II) agent; cited from earlier work

Cardiac enhancement ([1]; after i.v. administration, indicates free Mn released into the blood pool): cardiac enhancement was also seen
SMILES: O=C(O)CN(CC(=O)O)CC(=O)O [NTA, nitrilotriacetic acid]
Biodistribution on in vivo MR imaging ([1]; mouse, in vivo, iv): release of free Mn and hepatocellular uptake

SMILES: Cc1nn(-c2ccc(C(N)=O)c(NCCCOCCOCCOCCOCCOCCCC(=O)NCCCC(O)(P(=O)(O)O)P(=O)(O)O)c2)c2c1C(=O)CC(C)(C)C2 [Scheme 1C]
Enhancement in 4T1 tumors relative to paramagnetic coordination complex alone [2]: progressive accumulation of enhancement in 4T1 tumors that is greater than what is seen for the paramagnetic coordination complex alone

SMILES: Cc1ncc(COP(=O)([O-])[O-])c(CN(CCN(CC(=O)[O-])Cc2c(COP(=O)([O-])[O-])cnc(C)c2[O-])CC(=O)[O-])c1[O-].[H+].[H+].[H+].[Mn+2].[Na+].[Na+].[Na+] [Teslascan, mangafodipir trisodium]
In vivo distribution [3]: immediately distributed to the liver, releasing free Mn
